According to PubChem BioAssay (NCI):
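Exposure lasted 48 hours, with cells grown in 96-well plates and compounds tested at five concentrations. GI50 is the concentration that inhibits growth by half. TGI denotes the concentration required for complete inhibition of growth.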

Legend:
Assay in all cases: NCI anticancer screen, dose series, 48 h
[1] = test system: SF-268 CNS
[2] = test system: A498 renal
[3] = test system: RXF 393 renal
[4] = test system: RPMI-8226 leukemia
[5] = test system: IGROV1 ovarian
[6] = test system: HT29 colon
[7] = test system: OVCAR-5 ovarian
[8] = test system: NCI-H460 lung
[9] = test system: SW-620 colon
[10] = test system: SK-MEL-2 melanoma
[11] = test system: M14 melanoma
[12] = test system: T-47D breast
[13] = test system: SNB-19 CNS
[14] = test system: OVCAR-4 ovarian
[15] = test system: MOLT-4 leukemia
[16] = test system: HOP-62 NSCLC
[17] = test system: HCC-2998 colon
[18] = test system: BT-549 breast
[19] = test system: TK-10 renal
[20] = test system: NCI/ADR-RES ovarian
[21] = test system: HCT-116 colon
[22] = test system: SF-539 CNS
[23] = test system: HS 578T breast
[24] = test system: OVCAR-8 ovarian
[25] = test system: MDA-MB-435
[26] = test system: UACC-62 melanoma
[27] = test system: CCRF-CEM leukemia
[28] = test system: SR leukemia
[29] = test system: MALME-3M melanoma
[30] = test system: COLO 205 colon
[31] = test system: NCI-H226 lung
[32] = test system: PC-3 prostate
[33] = test system: SK-OV-3 ovarian
[34] = test system: KM12 colon
[35] = test system: NCI-H522 lung
[36] = test system: SK-MEL-28 melanoma
[37] = test system: A549 NSCLC
[38] = test system: NCI-H23 lung
[39] = test system: MDA-MB-468 breast
[40] = test system: OVCAR-3 ovarian
[41] = test system: SNB-75 CNS
[42] = test system: 786-0 renal
[43] = test system: UO-31 renal
[44] = test system: CAKI-1 renal
[45] = test system: HL-60(TB) leukemia
[46] = test system: EKVX NSCLC
[47] = test system: LOX IMVI melanoma
[48] = test system: UACC-257 melanoma
[49] = test system: SK-MEL-5 melanoma
[50] = test system: U251 CNS
[51] = test system: MCF7 breast
[52] = test system: HOP-92 NSCLC
[53] = test system: SN12C renal
[54] = test system: MDA-MB-231 breast
[55] = test system: K-562 leukemia
[56] = test system: HCT-15 colon
[57] = test system: SF-295 CNS
[58] = test system: ACHN renal
[59] = test system: DU-145 prostate

**Q.** Which results are given for `Fc1ccc(N2CC(Cn3c(C(F)(F)F)cc4c(Cl)ncnc43)C2)c(F)c1`?
**A.** GI50 [1]: 3.14 µM; TGI [1]: 11.2 µM; GI50 [2]: 23.3 µM; TGI [2]: 74.2 µM; GI50 [3]: 2.07 µM; TGI [3]: 4.99 µM; GI50 [4]: 23.4 µM; TGI [4]: 64.9 µM; GI50 [5]: 1.85 µM; TGI [5]: 3.54 µM; GI50 [6]: 3.44 µM; TGI [6]: 16.3 µM; GI50 [7]: 17.8 µM; TGI [7]: 37.3 µM; GI50 [8]: 3.99 µM; TGI [8]: 14.3 µM; GI50 [9]: 1.89 µM; TGI [9]: 3.85 µM; GI50 [10]: 15.9 µM; TGI [10]: 31.2 µM; GI50 [11]: 2.98 µM; TGI [11]: 10.7 µM; GI50 [12]: 13.9 µM; TGI [12]: 66.8 µM; GI50 [13]: 15.1 µM; TGI [13]: 28.9 µM; GI50 [14]: 12.9 µM; TGI [14]: 27 µM; GI50 [15]: 3.12 µM; TGI [15]: 8.97 µM; GI50 [16]: 17.1 µM; TGI [16]: 33.8 µM; GI50 [17]: 1.96 µM; TGI [17]: 3.48 µM; GI50 [18]: 10.7 µM; TGI [18]: 22.9 µM; GI50 [19]: 19.3 µM; TGI [19]: 50.7 µM; GI50 [20]: 10.2 µM; TGI [20]: 26.5 µM; GI50 [21]: 1.92 µM; TGI [21]: 3.93 µM; GI50 [22]: 13.7 µM; TGI [22]: 28.3 µM; GI50 [23]: 7.06 µM; TGI [23]: 41.8 µM; GI50 [24]: 2.15 µM; TGI [24]: 5.07 µM; GI50 [25]: 4.95 µM; TGI [25]: 17.6 µM; GI50 [26]: 3.16 µM; TGI [26]: 13 µM; GI50 [27]: 10.4 µM; TGI [27]: > 100 µM; GI50 [28]: 2.14 µM; TGI [28]: 6.92 µM; GI50 [29]: 12.6 µM; TGI [29]: 25.2 µM; GI50 [30]: 15.1 µM; TGI [30]: 32.5 µM; GI50 [31]: 14 µM; TGI [31]: 31 µM; GI50 [32]: 3.07 µM; TGI [32]: 10.9 µM; GI50 [33]: 14.6 µM; TGI [33]: 29.6 µM; GI50 [34]: 16.1 µM; TGI [34]: 31.2 µM; GI50 [35]: 1.82 µM; TGI [35]: 3.97 µM; GI50 [36]: 2.08 µM; TGI [36]: 4.91 µM; GI50 [37]: 17.3 µM; TGI [37]: 35.7 µM; GI50 [38]: 2.65 µM; TGI [38]: 8.34 µM; GI50 [39]: 1.63 µM; TGI [39]: 3.2 µM; GI50 [40]: 2.55 µM; TGI [40]: 6.42 µM; GI50 [41]: 12.1 µM; TGI [41]: 24.8 µM; GI50 [42]: 14.9 µM; TGI [42]: 29.1 µM; GI50 [43]: 2.68 µM; TGI [43]: 10.8 µM; GI50 [44]: 11.8 µM; TGI [44]: 24.2 µM; GI50 [45]: 2.26 µM; TGI [45]: 6.38 µM; GI50 [46]: 6.54 µM; TGI [46]: 19.8 µM; GI50 [47]: 1.63 µM; TGI [47]: 2.99 µM; GI50 [48]: 3.1 µM; TGI [48]: 12 µM; GI50 [49]: 10.9 µM; TGI [49]: 22.9 µM; GI50 [50]: 1.91 µM; TGI [50]: 3.83 µM; GI50 [51]: 8.16 µM; TGI [51]: 23.6 µM; GI50 [52]: 11 µM; TGI [52]: 25.4 µM; GI50 [53]: 1.95 µM; TGI [53]: 4.97 µM; GI50 [54]: 1.63 µM; TGI [54]: 3.09 µM; GI50 [55]: 2.34 µM; TGI [55]: 7.13 µM; GI50 [56]: 1.79 µM; TGI [56]: 3.55 µM; GI50 [57]: 11.5 µM; TGI [57]: 24.5 µM; GI50 [58]: 12.9 µM; TGI [58]: 27.5 µM; GI50 [59]: 12.6 µM; TGI [59]: 25.8 µM
